In the data set the test system is HeLa. Briefly: Protein binding in human HeLa cells at 1 mM incubated for 10 mins under dark by fluorescence microscopic analysis. The data set is classed as ADME, cell-based. The following applies: 1000 µM.

As to `CN1c2ccc3oc(=O)ccc3c2C(=O)CC1(C)C`, the PB result is “Not Active”.
Regarding `CCn1c(=O)ccc2c3c(ccc21)NC(C)(C)CC3=O`, the PB entry was “Active”.
The entry for `Cn1c(=O)ccc2c3c(ccc21)NC(C)(C)CC3=O` is “Not Active”; for `CCN1c2ccc3oc(=O)ccc3c2C(=O)CC1(C)C` it is “Active”.
For `CCN1c2ccc3c(ccc(=O)n3C)c2C(=O)CC1(C)C` the value was “Active”; for `CN1c2ccc3c(ccc(=O)n3C)c2C(=O)CC1(C)C`, “Active”.
For `CCn1c(=O)ccc2c3c(ccc21)N(C)C(C)(C)CC3=O` the value was “Active”; for `CCN1c2ccc3c(ccc(=O)n3CC)c2C(=O)CC1(C)C`, “Active”; for `CC1(C)CC(=O)c2c(ccc3oc(=O)ccc23)N1`, “Active”.

The record behind these values is ChEMBL document CHEMBL3102737, “Synthesis of novel pyrano[3,2-f]quinoline, phenanthroline derivatives and studies of their interactions with proteins: an application in mammalian cell imaging” (Eur J Med Chem, 2014).
